The source of these data is patent US5306620A, “Antibodies that bind to a ligand-induced binding site on integrin and induce integrin activation” (The Scripps Research Institute, priority 1990, dated 1994).

Residues, ends and D or L forms follow the SMILES beside them.

In assay [1] the target is T1, GPIIb-IIIa on platelets (Homo sapiens, UniProt P05106+P08514).
T1 construct: endogenous in cells; host or cells: platelets
In words: 125I-anti-LIBS1 binding to washed platelets with peptide ligands. To be noted: peptide 0.8 mM; stimulated and unstimulated platelets. Here is the method:
FIG. 2 illustrates anti-LIBS1 binding to platelets expressing a cryptic antigenic determinant as described in Example 5. Varied concentrations of ^125 I-anti-LIBS1 were bound at 37 C. for 30 minutes to gel-filtered platelets in the presence of no peptide (inverted triangle), 0.8 mM GRGESP (squares), 0.8 mM GRGDSP (triangles) or GRGDSP and 10 uM ADP (circles). Bound radioactivity was separated from free by spinning the platelets through a layer of sucrose.
Washed platelets were isolated as described in Example 1A, and were resuspended in 2 ml of calcium-free Tyrode's buffer (0.13 M NaCl, 0.0026 M KCl 0.002M MgCl2. 6H2 O, 5 mM Hepes, 0.012 M NaHCO3, pH 7.2) which was first treated by admixture with Chelex 100 (200-400 mesh sodium form, Bio-Rad Laboratories, Richmond, Calif.), maintained to complex any divalent cations present in the Tyrode's buffer and filtered to remove the complexed divalent cations from the buffer. The platelet suspension was then applied to a Sepharose CL2B column (40 ml total bed volume, Pharmacia, Inc., Piscataway, N.J.) equilibrated with the same Tyrode's buffer. […] The label containing immunoreaction products were then separated from non-bound ^125 I-labeled antibody by centrifugation of the platelet aliquot through a sucrose cushion as described in Example 4, and the platelet-associated radioactivity was determined as before.

In assay [2] the target is T2, αIIb β3 on A5 cells (Homo sapiens, UniProt P05106+P08514).
T2 construct: expressed in transfected cells
T2 sequence (P08514 32-887 limits assumed): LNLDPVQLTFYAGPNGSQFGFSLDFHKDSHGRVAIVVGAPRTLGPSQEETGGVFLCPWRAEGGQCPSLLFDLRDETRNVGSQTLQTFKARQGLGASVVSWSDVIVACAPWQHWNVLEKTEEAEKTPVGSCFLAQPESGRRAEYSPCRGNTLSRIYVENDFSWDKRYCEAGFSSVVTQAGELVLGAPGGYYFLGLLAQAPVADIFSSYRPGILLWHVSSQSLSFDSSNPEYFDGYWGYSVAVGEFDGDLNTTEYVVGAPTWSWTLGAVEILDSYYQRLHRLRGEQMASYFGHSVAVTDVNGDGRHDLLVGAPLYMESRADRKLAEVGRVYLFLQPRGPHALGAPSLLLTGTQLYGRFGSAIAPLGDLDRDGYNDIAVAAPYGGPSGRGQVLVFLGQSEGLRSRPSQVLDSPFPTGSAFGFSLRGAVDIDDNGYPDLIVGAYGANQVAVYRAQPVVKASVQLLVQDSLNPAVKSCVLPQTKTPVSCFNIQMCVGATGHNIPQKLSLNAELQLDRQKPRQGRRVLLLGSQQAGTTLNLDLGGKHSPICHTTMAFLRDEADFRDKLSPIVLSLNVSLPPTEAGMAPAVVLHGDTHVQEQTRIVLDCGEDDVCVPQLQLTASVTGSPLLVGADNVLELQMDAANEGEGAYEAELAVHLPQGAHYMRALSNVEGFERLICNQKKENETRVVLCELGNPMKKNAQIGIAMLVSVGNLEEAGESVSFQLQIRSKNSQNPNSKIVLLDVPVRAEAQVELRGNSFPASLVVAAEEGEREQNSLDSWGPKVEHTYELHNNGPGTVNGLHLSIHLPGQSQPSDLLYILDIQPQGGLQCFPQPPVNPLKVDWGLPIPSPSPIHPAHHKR
T2 sequence (P08514 891-1039 partner limits assumed): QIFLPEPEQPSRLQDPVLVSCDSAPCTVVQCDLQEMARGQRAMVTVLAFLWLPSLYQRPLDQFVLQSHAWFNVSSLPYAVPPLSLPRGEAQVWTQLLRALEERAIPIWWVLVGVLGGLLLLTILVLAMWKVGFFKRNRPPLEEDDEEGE
T2 sequence (P05106 27-788): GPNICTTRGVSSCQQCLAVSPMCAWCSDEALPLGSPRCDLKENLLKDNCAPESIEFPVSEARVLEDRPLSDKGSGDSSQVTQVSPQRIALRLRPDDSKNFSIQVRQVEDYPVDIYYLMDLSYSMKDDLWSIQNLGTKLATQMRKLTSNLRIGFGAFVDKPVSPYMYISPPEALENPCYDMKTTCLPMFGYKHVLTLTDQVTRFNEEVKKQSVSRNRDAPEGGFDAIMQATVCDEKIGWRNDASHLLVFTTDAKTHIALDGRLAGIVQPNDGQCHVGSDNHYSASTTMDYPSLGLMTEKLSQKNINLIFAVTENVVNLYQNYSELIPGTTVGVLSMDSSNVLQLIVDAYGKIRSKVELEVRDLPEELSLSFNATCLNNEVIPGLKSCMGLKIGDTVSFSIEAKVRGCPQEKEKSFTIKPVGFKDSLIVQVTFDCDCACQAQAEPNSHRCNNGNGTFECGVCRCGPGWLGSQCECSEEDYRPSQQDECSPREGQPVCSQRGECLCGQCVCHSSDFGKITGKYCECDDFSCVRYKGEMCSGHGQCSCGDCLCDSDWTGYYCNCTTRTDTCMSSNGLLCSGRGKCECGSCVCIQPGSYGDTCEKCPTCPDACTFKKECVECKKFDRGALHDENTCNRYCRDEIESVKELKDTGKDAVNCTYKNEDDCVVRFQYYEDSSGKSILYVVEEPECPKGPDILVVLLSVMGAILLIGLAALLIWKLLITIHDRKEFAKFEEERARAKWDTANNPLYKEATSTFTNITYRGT
In words: Soluble 125I-fibrinogen binding to A5 cells. Type of assay: cell-based. The procedure: FIG. 4 illustrates the equilibrium binding of soluble fibrinogen (Fg) to Ab-62 stimulated (activated) A5 cells when measured as in Example 10. A5 cells at a concentration of 10^6 per ml were admixed with 6 uM of Sepharose-purified AB-62 and maintained at 22 C. for 30 minutes to activate the integrin. Iodinated Fg was then admixed in varying concentrations from 0.01 to 1 nM. After a 60 minute maintenance period, the bound ligand was separated from free ligand by centrifugation through 0.3 ml of 20% sucrose. The amount of radiolabelled ligand associated with the cell pellet was determined by gamma detection. Saturable binding was measured in three different experiments and plotted versus the input Fg concentration to obtain an averaged profile. A Scatchard replot of the binding data was made and is shown in the insert.
An independent measure of integrin activation was made by detecting the ability of a cell containing the integrin to bind soluble fibrinogen (Fg) that had been labelled with ^125 I. Fg was isolated and labelled with ^125 I by standard methods as described by Marguerie et al., J. Biol. Chem., 255:154-161 (1980) to form ^125 I-Fg. Thereafter, the binding of ^125 I-Fg to transfected cells was assayed as described previously for platelets [Marguerie et al., J. Biol. Chem., 255:154-161 (1980)]. Binding was initiated by the addition of cells to radiolabelled Fg and incubation at 37 degrees for 30 minutes. Bound ligand was separated from free ligand by centrifugation through 0.3 ml of 20% sucrose and the amount of radiolabelled ligand associated with the cell pellet determined by gamma detection.
Background binding in this assay detected about 30,000 molecules of Fg bound per integrin bearing cell, whereas maximum Ab-62 stimulated A5 cells bound about 95,000 molecules of Fg per cell.
Equilibrium binding of soluble Fg to Ab-62 stimulated (activated) A5 cells was carried out to better characterize Fg binding. […] A5 cells (10^6 per ml) were incubated with 6 uM Sepharose-purified Ab-62 for 30 minutes at 22 C. to activate the integrin. Thereafter ^125 I-Fg was admixed in varying concentrations from 0.01 to 1 nM. After 60 minutes, bound Fg was measured as described above after centrifugation of the cells through sucrose.
Saturable binding was measured in three different experiments and plotted versus the input Fg concentration to obtain average data which is shown in FIG. 4. A Scatchard replot of the binding data was also made and is shown in the inset to FIG. 4. The binding of the various concentrations of Fg to activated A5 cells at steady state was analyzed by use of the "Ligand" computer program. […] There was day to day variation in the quantity of αIIb β3 expressed as measured by the binding of the 2G12 antibody (150,000 to 440,000 sites/cell) as well as in the number of Fg receptors (138,000 to 360,000 sites/cell). The ratio of Fg receptors to αIIb β3 expressed per cell on a given day was 0.83±0.05, thus virtually all of the recombinant αIIb β3 was functional with respect to Fg binding.

Assay [3] addresses T3, solubilized αIIb β3 from platelets (Homo sapiens, UniProt P05106+P08514).
T3 construct: αIIb β3 was solubilized from platelets; endogenous in cells; host or cells: human platelets, octylglucoside lysate
In words: Solution phase assay: 125I-Fg binding to solubilized αIIb β3. Type of assay: biochemical. Here is the method: To determine if activating antibodies could activate αIIb β3 extracted away f rom the membrane milieu, the activating capacity to stimulate Fg binding in a solution phase was assayed. In this assay, αIIb β3 was solubilized from platelets, incubated in the presence or absence of activating monoclonal antibodies, and then bound to microtiter plates coated with a non-activating monoclonal anti β3 antibody.
The platelet pellet was resuspended and solubilized in ice cold 10 mM Hepes containing 150 mM NaCl, 50 mM octyl-B-D-glucoypyranoside (Calbiochem, La Jolla, Calif.) 1 mm PMSF, 50 ng/ml PGE, 1 mM CaCl2, 1 mM MgCl2, 50 uM leupeptin and 1 mg/ml N-ethylmaleimide (Sigma, St. Louis, Mo.) and centrifuged at 100,000 g for 30 minutes. […] The microtiter wells were incubated at 4 C. overnight, washed twice with a modified Tyrodes-Hepes buffer (2.5 mM Hepes, 150 mM NaCl, 2.5 mM KCl, 1 mM MgCl2, 12 mM NaHCO3, 5.5 mM D-glucose and 1 mg/ml BSA, pH 7.4) containing 50 MM octyl-B-D-glucopyranoside and 0.1 uM activating monoclonal antibody and then twice in Tyrodes-Hepes buffer only to form αIIb β3 -bound microtiter wells. […] Bound radioactivity was counted after 2 washes with Tyrodes-Hepes buffer.

The target of assay [4] is T2, αIIb β3 on A5 cells. In words: Binding of fibrinogen-coated fluorescent beads to A5 cells. The assay is classed as cell-based. To be noted: 2 mM peptide. Here is the method: Immobilized Fg was prepared by coating […] fluorescent latex beads (Fluoricon Fluorescent Particles, Baxter, McGraw Park, Ill.). These beads were prepared by incubating 1 mg of purified Fg with 650 ul of Fluoricon beads for 1 hour at room temperature. The beads were pelleted, resuspended in 1 ml of 30 mM Tris pH 7.4, 170 mM NaCl and 1% BSA, and stored at 4 degrees until ready for use. The binding of these particles to transfected cells was assessed by incubating 5×10^5 cells with 25 ul of beads in the presence or absence of polypeptide inhibitors for 30 minutes at room temperature. The solution was layered over a 6% BSA cushion, spun 5 minutes in a microfuge and the pelleted cells resuspended in 500 ul of Tyrodes and subjected to FACS analysis as described in Example 7.

The subject of assay [5] is αIIb β3 and αv β3. In words: Peptide ligand recognition by recombinant β3 integrins. Type of assay: binding, human.

T3 sequence (P08514 32-887 limits assumed): as the sequence (P08514 32-887 limits assumed) above
T3 sequence (P08514 891-1039 partner limits assumed): as the sequence (P08514 891-1039 partner limits assumed) above
T3 sequence (P05106 27-788): as the sequence (P05106 27-788) above
T1 sequence (P08514 32-887 limits assumed): as the sequence (P08514 32-887 limits assumed) above
T1 sequence (P08514 891-1039 partner limits assumed): as the sequence (P08514 891-1039 partner limits assumed) above
T1 sequence (P05106 27-788): as the sequence (P05106 27-788) above

Consider `N=C(N)NCCC[C@H](NC(=O)CN)C(=O)NCC(=O)N[C@@H](CC(=O)O)C(=O)N[C@@H](CO)C(=O)N1CCC[C@H]1C(=O)O` [GRGDSP, Gly-Arg-Gly-Asp-Ser-Pro], for which the “induction of LIBS1 cryptic antigenic determinant on platelets by peptide ligand” value in assay [1] was “will express a LIBS1 cryptic antigenic determinant”. Also, in assay [2], the “inhibition of soluble 125I-Fg binding to activated A5 cells” value was “inhibited”. Also, in assay [3], the “inhibition of Fg binding to stimulated captured receptor” value is “inhibition”. Moreover, in assay [4], the “adherence of A5 cells to Fg-coated microspheres” value is “inhibited”.

Take `CC(C)C[C@H](N)C(=O)NCC(=O)NCC(=O)N[C@@H](C)C(=O)N[C@@H](CCCCN)C(=O)N[C@@H](CCC(N)=O)C(=O)N[C@@H](C)C(=O)NCC(=O)N[C@@H](CC(=O)O)C(=O)N[C@H](C(=O)O)C(C)C` [Mab L10, LGGAKQAGDV] (H-LGGAKQAGDV-OH): the “recognition of peptide by αIIb β3 versus αv β3” value in assay [5] is recorded as “recognized better by αIIb β3 than by αv β3”.
